Assay results taken from ChEMBL document CHEMBL5050836, “Inhibitors of eya3-protein tyrosine phosphatase in dna damage repair signaling of pulmonary arterial hypertension” (2021).
Activity calls are given as the source filed them. The rule behind the calls is not given here.

What was measured:
Liver = assay: Hepatotoxicity in rats at 0.15 to 1.5 mg administered via instillation in to trachea; assay type: toxicity; settings: rat, in vivo, inhaled_or_intranasal; dose 0.15-1.5 mg
Lung [1] = assay: Protection against pulmonary hypertension in Sugen-Hypoxia (SuHx) rat model assessed as reduction in 53BP1 foci in lungs; assay type: functional, tissue-based
Lung [2] = assay: Protection against pulmonary hypertension in Sugen-Hypoxia (SuHx) rat model assessed as reduction in gamma-H2AX foci in lungs; assay type: functional, tissue-based

In the case of CCc1oc2ccccc2c1C(=O)c1ccc(O)cc1 [BENZARONE], the Activity (Liver) is reported as “Non-Toxic”, the Activity (Lung [1]) is reported as “Active” and the Activity (Lung [2]) is reported as “Active”.
